Test results as given in patent US20260124181A1, “AGENT FOR REDUCING BLOOD MYOSTATIN LEVEL” (KOWA COMPANY, LTD., priority 2022, published 2026).

System: blood myostatin
Test: Effect of compound A on blood myostatin in NAFLD patients, oral administration for 72 weeks versus placebo
Assay type: in vivo, human
Conditions: 0.4 mg per day oral (0.2-mg tablet twice a day)
Experimental: An effect on blood myostatin at the time of the oral administration of 0.4 mg per day of the compound A (a 0.2-mg tablet of the compound A was administered twice a day at the time of fasting) to a patient of a nonalcoholic fatty liver disease (NAFLD) for 72 weeks was investigated by comparison to the administration of a placebo. […] It was clear from FIG. 1 that the administration of the compound A reduced the fasting blood myostatin concentration at 12 weeks and 72 weeks from the administration in a stepwise manner as compared to the placebo administration.

## CC[C@@H](Oc1cccc(CN(CCCOc2ccc(OC)cc2)c2nc3ccccc3o2)c1)C(=O)O [Compound A, (R)-2-[3-[[N-(benzoxazol-2-yl)-N-3-(4-methoxyphenoxy)propyl]aminomethyl]phenoxy]butyric acid]
12 weeks after start of administration
  fasting blood myostatin concentration, change from baseline as compared to placebo: reduced
72 weeks after start of administration
  fasting blood myostatin concentration, change from baseline as compared to placebo: reduced
